According to patent US20050181360A1, “Assay for cell cycle modulators based on the modulation of cyclin d1 degradation in response to ionising radiation” (priority 2000, published 2005):
Residues, ends and D or L forms follow the SMILES beside them. *: point of attachment. Cbz = O=C(OCc1ccccc1)*

Tests used:
Type in all cases: cell-based
[1] = system: cyclin D1 protein in MCF-7 cells; experiment: Effect of GSK3 inhibition by Li+ on IR-induced cyclin D1 degradation, immunoblot
Excerpt: Activation of the PI3K-PKB/Akt-GSK-3β pathway leads to cyclin D1 degradation through phosphorylation of threonine 286 of cyclin D1 by GSK3-β (Diehl et al., 1998). We therefore asked whether this pathway is also activated by IR and is involved in stress-induced degradation of cyclin D1. To investigate the co-immunoprecipitation of GSK3-β with CDK4-cyclin D1 complex, MCF-7 cells were subjected to treatment with proteasome inhibitor cbz-LLL and IR. 5% of the cell lysates or the immunoprecipitated protein complexes were separated on 10% SDS-PAGE and immunoblotted against cyclin-D1, CDK4, GSK3- and control JNK1 proteins. […] We used proteasome inhibitors to protect cyclin D1 from degradation thereby making a direct comparison between the different treatments possible. […] MCF-7 cells were treated with increasing concentrations of LiCl or control KCl and subsequently IR (20 Gy). Lysates were prepared after 2 hours, separated on 10% SDS-PAGE and immunoblotted sequentially with anti-cyclin D1 and anti-p53 antibodies. If this pathway is involved, Li^+ ions should inhibit cyclin D1 degradation.

cyclin D1 protein = experiment: Cyclin D1 degradation in response to genotoxic agents
Experimental: (§1) We then asked whether cyclin D1 protein stability was affected in response to IR using a pulse-chase experiment. MCF-7 cells were pulse-labelled with [^35S]-methionine and after IR chased with excess cold methionine for the indicated periods of time. Cyclin D1 protein was immunoprecipitated, separated on SDS-PAGE and detected by PhosphorImager. Cyclin D1 was destabilized immediately after IR; its half-life decreased from 40 minutes to less then 20 (FIG. 2). To ask whether the IR-induced degradation of cyclin D1 is mediated by the proteasome, MCF-7 cells were exposed to IR and subsequently the proteasome inhibitor cbz-LLL was added at increasing concentrations for two hours. After two hours, protein lysates were made, separated on 10% SDS PAGE, and Western blotted sequentially with antibodies against cyclin D1, p53 and cyclin E proteins.

[2] = system: CDK2 activity precipitated from MCF-7/E6 cells; experiment: Immunoprecipitation-kinase assay of CDK2 activity after IR (histone H1 substrate); conditions: two hours after IR, 10 mM cbz-LLL
Experimental: We next determined the CDK2 activity precipitated from MCF-7/E6 cells treated with IR. Cells were treated as above, except that cells were harvested after 2 hours. […] Identical results were obtained with parental MCF-7 cells. Therefore, protein degradation seems to be necessary for fast CDK2 kinase inhibition after genotoxic stress.
We then examined the CDK2 activity in response to IR of cells transiently over-expressing either D1TA or D1TA-L32A proteins. MCF-7/E6 cells were electroporated as above, irradiated (20 Gy) and harvested 2 hours later. CDK2 protein was immunoprecipitated and its kinase activity was examined using Histone 1 as a substrate (H1). CDK2 protein level was determined by immunoblotting (IB) of the same membrane with an antibody against CDK2.
To determine CDK2 activity, specific complexes from either MCF-7/Neo or MCF-7/E6 cells were immunoprecipitated from extracts using anti-CDK2 antibody (M-2). The beads were washed two additional times with kinase buffer (20 mM Tris HCl pH:7.4, 4 mM MgCl2 and 0.5 mM DTT) and kinase reaction was carried out in […] volume kinase buffer containing […] histone-H1 as a specific substrate, […] [γ-^32P]-ATP (5000 mCi/mmol, Amersham) and […] ATP at 37 C for 30 minutes. GSK3-β activity, was determined exactly as described in (van Weeren et al., 1998) using peptide PG-S1 as a substrate.

[3] = system: cyclin D1 protein in MCF-7 cells; experiment: IR-induced cyclin D1 downregulation with proteasome inhibitor, Western blot; conditions: 5 mM cbz-LLL added after IR for two hours
Experimental: as §1

MCF-7 cells = experiment: IR-induced degradation of transfected cyclin mutants, immunoblot; conditions: transfected MCF-7 cells, IR 20 Gy, two hours
Excerpt: To map the motif in cyclin D1 that mediates its degradation by genotoxic stress we analyzed several mutants of D1 by expression in MCF-7 cells. In all these experiments a co-transfected GFP construct was used to confirm equal transfection efficiencies between irradiated- and control cells. When cyclin D1 was mutated at a site within the cyclin box that is essential for activation of CDK4/6 (mutant K112E), D1 degradation by IR remained. The same result was obtained when the pRb family binding site in cyclin D1 was mutated (LxCxE mutant). We therefore conclude that D1 induced degradation by genotoxic stress is independent of both CDK4/6 kinase and pRb binding.
In the yeast Saccharomyces cerevisiae, degradation of the cyclin C homologue Ume3p can be induced by various stress signals such as heat, oxidative stress and ethanol shock (Cooper et al., 1997; Cooper et al., 1999). Three regions in Ume3p are required for stress-induced degradation, including a destruction box at the amino terminus (RxxL motif), the amino terminal region of the cyclin box and a PEST domain. […] Since cyclin D2 is not degraded by the genotoxic stress response we mutated cyclin D1 to the corresponding amino acid in cyclin D2. […] To further investigate this, we performed a pulse-chase experiment with the cyclin D1 L32A destruction box mutant to determine its half-life. […]

Molecule: [Cl-].[Li+] [Li^+ ions, LiCl]
- effect on cyclin D1 degradation by IR ([1]; increasing concentrations of LiCl, IR 20 Gy, lysates after 2 hours): no detectable effect
- cyclin D1 levels in non-irradiated cells ([1]; non-irradiated MCF-7 cells): increase

Molecule: N.N.[Cl][Pt][Cl] [cis-platin]
- cyclin D1 degradation in response to genotoxic agent (cyclin D1 protein): rapidly degraded

Molecule: CC(C)C[C@@H](C=O)NC(=O)[C@H](CC(C)C)NC(=O)[C@H](CC(C)C)NC(=O)OCc1ccccc1 [cbz-LLL] (Cbz-Leu-Leu-Leu-aldehyde)
- IR-induced reduction of CDK2 activity [2]: blocked
- block of cyclin D1 downregulation by IR [3]: completely block
- effect on cyclin E protein levels [3]: without any effect

Molecule: T286A: cyclin D1 mutant in which the GSK3-β phosphorylation site was mutated
- degradation by IR (MCF-7 cells): fully responsive

Molecule: K112E: cyclin D1 mutated within the cyclin box at a site essential for activation of CDK4/6
- degradation by IR (MCF-7 cells): remained
